How the values were obtained:
Experiment in all cases: Upstate KinaseProfiler radio-enzymatic filter binding assay
Type in all cases: biochemical
MKK4(m) = biological target: T1, MKK4(m) (Mus musculus, UniProt P47809); details: read-out: percentage inhibition MKK4(m)
T1 construct: purchased Upstate
Experimental: (§1) Compounds of the invention are assessed for their ability to inhibit individual members of the kinase panel. The compounds are tested in duplicates at a final concentration of 10 μM following this generic protocol. Note that the kinase buffer composition and the substrates vary for the different kinases included in the “Upstate KinaseProfiler™” panel. Kinase buffer (2.5 μL, 10×—containing MnCl2 when required), active kinase (0.001-0.01 Units; 2.5 μL), specific or Poly(Glu4-Tyr) peptide (5-500 μM or 0.01 mg/ml) in kinase buffer and kinase buffer (50 μM; 5 μL) are mixed in an eppendorf on ice. A Mg/ATP mix (10 μL; 67.5 (or 33.75) mM MgCl2, 450 (or 225) μM ATP and 1 μCi/μl [γ-^32P]-ATP (3000 Ci/mmol)) is added and the reaction is incubated at about 30° C. for about 10 minutes. The reaction mixture is spotted (20 μL) onto a 2 cm×2 cm P81 (phosphocellulose, for positively charged peptide substrates) or Whatman No. 1 (for Poly (Glu4-Tyr) peptide substrate) paper square. The assay squares are washed 4 times, for 5 minutes each, with 0.75% phosphoric acid and washed once with acetone for 5 minutes. The assay squares are transferred to a scintillation vial, 5 ml scintillation cocktail are added and ^32P incorporation (cpm) to the peptide substrate is quantified with a Beckman scintillation counter. Percentage inhibition is calculated for each reaction.

PAK2(h) = biological target: T2, PAK2(h) (Homo sapiens, UniProt Q13177); details: read-out: percentage inhibition PAK2(h)
T2 construct: purchased Upstate
T2 sequence (Q13177 whole entry): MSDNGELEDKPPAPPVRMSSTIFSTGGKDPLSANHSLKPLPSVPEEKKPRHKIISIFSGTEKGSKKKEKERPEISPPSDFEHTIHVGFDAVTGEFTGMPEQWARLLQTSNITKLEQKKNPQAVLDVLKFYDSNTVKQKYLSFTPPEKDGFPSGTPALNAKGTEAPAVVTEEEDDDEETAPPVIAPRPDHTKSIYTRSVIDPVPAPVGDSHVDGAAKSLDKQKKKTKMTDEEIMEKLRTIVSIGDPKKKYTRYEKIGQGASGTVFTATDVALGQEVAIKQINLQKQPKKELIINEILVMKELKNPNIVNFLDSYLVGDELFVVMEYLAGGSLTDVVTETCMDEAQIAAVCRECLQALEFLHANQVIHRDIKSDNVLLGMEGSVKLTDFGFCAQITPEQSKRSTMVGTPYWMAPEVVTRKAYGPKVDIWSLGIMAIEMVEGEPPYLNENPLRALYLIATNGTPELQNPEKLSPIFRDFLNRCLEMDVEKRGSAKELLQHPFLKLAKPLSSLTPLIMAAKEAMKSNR
Experimental: as §1

Rsk1(h) = biological target: T3, Rsk1(h) (Homo sapiens, UniProt Q15418); details: read-out: percentage inhibition Rsk1(h)
T3 construct: purchased Upstate
T3 sequence (Q15418 whole entry): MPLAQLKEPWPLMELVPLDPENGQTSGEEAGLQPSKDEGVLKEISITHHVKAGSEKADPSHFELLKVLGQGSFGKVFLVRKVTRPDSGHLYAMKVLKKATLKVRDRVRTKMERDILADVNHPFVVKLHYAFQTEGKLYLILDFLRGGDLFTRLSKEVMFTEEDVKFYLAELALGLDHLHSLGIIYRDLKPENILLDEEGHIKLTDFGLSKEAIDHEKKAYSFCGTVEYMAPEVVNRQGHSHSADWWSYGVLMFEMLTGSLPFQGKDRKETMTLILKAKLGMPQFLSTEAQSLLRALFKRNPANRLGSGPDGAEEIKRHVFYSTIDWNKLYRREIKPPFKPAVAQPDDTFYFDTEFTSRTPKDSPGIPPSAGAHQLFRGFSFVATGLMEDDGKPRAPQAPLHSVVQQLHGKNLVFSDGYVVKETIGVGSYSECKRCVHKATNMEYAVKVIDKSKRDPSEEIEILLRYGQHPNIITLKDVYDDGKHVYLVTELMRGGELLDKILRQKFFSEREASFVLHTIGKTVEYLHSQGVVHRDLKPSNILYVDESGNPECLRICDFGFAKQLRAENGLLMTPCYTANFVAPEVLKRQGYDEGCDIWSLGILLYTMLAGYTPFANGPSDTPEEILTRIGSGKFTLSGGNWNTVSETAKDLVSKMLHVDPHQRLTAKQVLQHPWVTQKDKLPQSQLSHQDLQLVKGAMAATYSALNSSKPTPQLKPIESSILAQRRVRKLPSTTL
Experimental: as §1

JNK1α1(h) = biological target: T4, JNK1α1(h) (Homo sapiens, UniProt P45983); details: read-out: percentage inhibition JNK1α1(h)
T4 construct: purchased Upstate
Experimental: as §1

BTK(h) = biological target: T5, BTK(h) (Homo sapiens, UniProt Q06187); details: read-out: percentage inhibition BTK(h)
T5 construct: purchased Upstate
Experimental: as §1

CSK(h) = biological target: T6, CSK(h) (Homo sapiens, UniProt P41240); details: read-out: percentage inhibition CSK(h)
T6 construct: purchased Upstate
Experimental: as §1

Tie2(h) = biological target: T7, Tie2(h) (Homo sapiens, UniProt Q02763); details: read-out: percentage inhibition Tie2(h)
T7 construct: purchased Upstate
Experimental: as §1

Abl(m) = biological target: T8, Abl(m) (Mus musculus, UniProt P00520); details: read-out: percentage inhibition Abl(m)
T8 construct: purchased Upstate
Experimental: as §1

SGK(h) = biological target: T9, SGK(h) (Homo sapiens, UniProt O00141); details: read-out: percentage inhibition SGK(h)
T9 construct: purchased Upstate
Experimental: as §1

PKA(h) = biological target: T10, PKA(h) (Homo sapiens, UniProt P17612); details: read-out: percentage inhibition PKA(h)
T10 construct: purchased Upstate
Experimental: as §1

SAPK3(h) = biological target: T11, SAPK3(h) (Homo sapiens, UniProt P53778); details: read-out: percentage inhibition SAPK3(h)
T11 construct: purchased Upstate
Experimental: as §1

Bmx(h) = biological target: T12, Bmx(h) (Homo sapiens, UniProt P51813); details: read-out: percentage inhibition Bmx(h)
T12 construct: purchased Upstate
Experimental: as §1

Fes(h) = biological target: T13, Fes(h) (Homo sapiens, UniProt P07332); details: read-out: percentage inhibition Fes(h)
T13 construct: purchased Upstate
Experimental: as §1

JNK2α2(h) = biological target: T14, JNK2α2(h) (Homo sapiens, UniProt P45984); details: read-out: percentage inhibition JNK2α2(h)
T14 construct: purchased Upstate
T14 sequence (P45984 whole entry): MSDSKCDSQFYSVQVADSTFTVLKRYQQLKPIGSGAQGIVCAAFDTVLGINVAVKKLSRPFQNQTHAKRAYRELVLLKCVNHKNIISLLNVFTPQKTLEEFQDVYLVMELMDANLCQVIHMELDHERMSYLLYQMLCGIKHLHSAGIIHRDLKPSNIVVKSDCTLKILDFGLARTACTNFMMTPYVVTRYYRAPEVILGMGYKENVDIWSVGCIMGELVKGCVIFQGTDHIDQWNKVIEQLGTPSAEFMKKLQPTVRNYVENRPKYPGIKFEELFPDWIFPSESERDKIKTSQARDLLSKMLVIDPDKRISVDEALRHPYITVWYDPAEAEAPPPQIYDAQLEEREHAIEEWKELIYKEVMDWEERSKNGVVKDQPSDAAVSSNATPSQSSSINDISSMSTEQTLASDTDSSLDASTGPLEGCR
Experimental: as §1

TrkB(h) = biological target: T15, TrkB(h) (Homo sapiens, UniProt Q16620); details: read-out: percentage inhibition TrkB(h)
T15 construct: purchased Upstate
Experimental: as §1

Syk(h) = biological target: T16, Syk(h) (Homo sapiens, UniProt P43405); details: read-out: percentage inhibition Syk(h)
T16 construct: purchased Upstate
Experimental: as §1

MKK6(h) = biological target: T17, MKK6(h) (Homo sapiens, UniProt P52564); details: read-out: percentage inhibition MKK6(h)
T17 construct: purchased Upstate
Experimental: as §1

PDGFRα(h) = biological target: T18, PDGFRα(h) (Homo sapiens, UniProt P16234); details: read-out: percentage inhibition PDGFRα(h)
T18 construct: purchased Upstate
T18 sequence (P16234 24-1089): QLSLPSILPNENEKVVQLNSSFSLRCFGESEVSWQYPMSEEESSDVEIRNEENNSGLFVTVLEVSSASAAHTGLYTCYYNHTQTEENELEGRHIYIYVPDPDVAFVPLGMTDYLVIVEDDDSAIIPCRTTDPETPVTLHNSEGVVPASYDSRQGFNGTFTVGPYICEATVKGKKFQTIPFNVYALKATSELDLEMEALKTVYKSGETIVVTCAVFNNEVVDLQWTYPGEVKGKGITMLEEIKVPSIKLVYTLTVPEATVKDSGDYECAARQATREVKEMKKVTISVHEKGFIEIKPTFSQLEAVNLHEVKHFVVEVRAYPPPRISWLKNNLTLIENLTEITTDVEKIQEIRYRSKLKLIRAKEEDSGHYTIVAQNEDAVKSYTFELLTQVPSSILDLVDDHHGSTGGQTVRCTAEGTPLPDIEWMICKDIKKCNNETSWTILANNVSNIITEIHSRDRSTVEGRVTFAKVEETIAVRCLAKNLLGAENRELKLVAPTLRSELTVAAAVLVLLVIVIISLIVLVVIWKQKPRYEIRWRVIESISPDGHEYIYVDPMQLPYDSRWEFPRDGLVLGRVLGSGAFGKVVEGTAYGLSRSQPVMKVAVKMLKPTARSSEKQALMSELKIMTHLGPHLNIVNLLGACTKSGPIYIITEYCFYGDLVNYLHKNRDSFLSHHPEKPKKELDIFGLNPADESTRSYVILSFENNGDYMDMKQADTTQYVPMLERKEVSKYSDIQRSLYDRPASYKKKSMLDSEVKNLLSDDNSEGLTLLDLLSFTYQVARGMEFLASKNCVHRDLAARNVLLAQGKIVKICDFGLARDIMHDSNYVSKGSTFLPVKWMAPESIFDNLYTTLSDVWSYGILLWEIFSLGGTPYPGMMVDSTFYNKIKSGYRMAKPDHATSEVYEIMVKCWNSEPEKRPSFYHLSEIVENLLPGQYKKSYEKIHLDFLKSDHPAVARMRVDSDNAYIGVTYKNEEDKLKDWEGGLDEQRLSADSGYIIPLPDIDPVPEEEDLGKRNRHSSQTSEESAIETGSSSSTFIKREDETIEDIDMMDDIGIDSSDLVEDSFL
Experimental: as §1

p70S6K(h) = biological target: T19, p70S6K(h) (Homo sapiens, UniProt P23443); details: read-out: percentage inhibition p70S6K(h)
T19 construct: purchased Upstate
Experimental: as §1

Met(h) = biological target: T20, Met(h) (Homo sapiens, UniProt P08581); details: read-out: percentage inhibition Met(h)
T20 construct: purchased Upstate
Experimental: as §1

ROCK-II(h) = biological target: T21, ROCK-II(h) (Homo sapiens, UniProt O75116); details: read-out: percentage inhibition ROCK-II(h)
T21 construct: purchased Upstate
Experimental: as §1

Ros(h) = biological target: T22, Ros(h) (Homo sapiens, UniProt P08922); details: read-out: percentage inhibition Ros(h)
T22 construct: purchased Upstate
Experimental: as §1

Lck(h) = biological target: T23, Lck(h) (Homo sapiens, UniProt P06239); details: read-out: percentage inhibition Lck(h)
T23 construct: purchased Upstate
Experimental: as §1

IKKβ(h) = biological target: T24, IKKβ(h) (Homo sapiens, UniProt O14920); details: read-out: percentage inhibition IKKβ(h)
T24 construct: purchased Upstate
Experimental: as §1

SAPK2a(h) = biological target: T25, SAPK2a(h) (Homo sapiens, UniProt Q16539); details: read-out: percentage inhibition SAPK2a(h)
T25 construct: purchased Upstate
T25 sequence (Q16539 whole entry): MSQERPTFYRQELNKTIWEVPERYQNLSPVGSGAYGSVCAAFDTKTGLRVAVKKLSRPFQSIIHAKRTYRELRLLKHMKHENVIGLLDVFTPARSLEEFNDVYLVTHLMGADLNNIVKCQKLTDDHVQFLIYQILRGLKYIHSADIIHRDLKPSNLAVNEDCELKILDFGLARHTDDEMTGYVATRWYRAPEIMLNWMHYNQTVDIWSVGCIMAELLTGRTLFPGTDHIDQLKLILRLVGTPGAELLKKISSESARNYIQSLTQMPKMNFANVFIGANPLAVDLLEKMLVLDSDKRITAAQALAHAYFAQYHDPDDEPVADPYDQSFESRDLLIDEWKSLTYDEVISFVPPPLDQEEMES
Experimental: as §1

cSRC(h) = biological target: T26, cSRC(h) (Homo sapiens, UniProt P12931); details: read-out: percentage inhibition cSRC(h)
T26 construct: purchased Upstate
T26 sequence (P12931 whole entry): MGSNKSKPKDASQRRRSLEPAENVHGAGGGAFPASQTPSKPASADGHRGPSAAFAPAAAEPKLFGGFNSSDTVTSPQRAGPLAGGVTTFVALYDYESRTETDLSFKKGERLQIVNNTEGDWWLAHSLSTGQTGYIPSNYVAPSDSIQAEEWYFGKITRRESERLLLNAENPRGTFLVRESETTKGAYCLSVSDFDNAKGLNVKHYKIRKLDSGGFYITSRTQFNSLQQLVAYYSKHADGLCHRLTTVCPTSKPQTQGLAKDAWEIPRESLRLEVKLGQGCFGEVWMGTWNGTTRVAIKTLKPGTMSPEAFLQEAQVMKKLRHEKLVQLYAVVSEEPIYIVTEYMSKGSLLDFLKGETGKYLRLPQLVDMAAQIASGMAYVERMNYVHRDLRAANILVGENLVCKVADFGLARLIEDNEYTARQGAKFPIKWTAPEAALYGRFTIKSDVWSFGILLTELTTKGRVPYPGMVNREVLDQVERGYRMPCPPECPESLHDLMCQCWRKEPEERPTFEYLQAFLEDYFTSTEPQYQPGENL
Experimental: as §1

FGFR3(h) = biological target: T27, FGFR3(h) (Homo sapiens, UniProt P22607); details: read-out: percentage inhibition FGFR3(h)
T27 construct: purchased Upstate
T27 sequence (P22607 23-806): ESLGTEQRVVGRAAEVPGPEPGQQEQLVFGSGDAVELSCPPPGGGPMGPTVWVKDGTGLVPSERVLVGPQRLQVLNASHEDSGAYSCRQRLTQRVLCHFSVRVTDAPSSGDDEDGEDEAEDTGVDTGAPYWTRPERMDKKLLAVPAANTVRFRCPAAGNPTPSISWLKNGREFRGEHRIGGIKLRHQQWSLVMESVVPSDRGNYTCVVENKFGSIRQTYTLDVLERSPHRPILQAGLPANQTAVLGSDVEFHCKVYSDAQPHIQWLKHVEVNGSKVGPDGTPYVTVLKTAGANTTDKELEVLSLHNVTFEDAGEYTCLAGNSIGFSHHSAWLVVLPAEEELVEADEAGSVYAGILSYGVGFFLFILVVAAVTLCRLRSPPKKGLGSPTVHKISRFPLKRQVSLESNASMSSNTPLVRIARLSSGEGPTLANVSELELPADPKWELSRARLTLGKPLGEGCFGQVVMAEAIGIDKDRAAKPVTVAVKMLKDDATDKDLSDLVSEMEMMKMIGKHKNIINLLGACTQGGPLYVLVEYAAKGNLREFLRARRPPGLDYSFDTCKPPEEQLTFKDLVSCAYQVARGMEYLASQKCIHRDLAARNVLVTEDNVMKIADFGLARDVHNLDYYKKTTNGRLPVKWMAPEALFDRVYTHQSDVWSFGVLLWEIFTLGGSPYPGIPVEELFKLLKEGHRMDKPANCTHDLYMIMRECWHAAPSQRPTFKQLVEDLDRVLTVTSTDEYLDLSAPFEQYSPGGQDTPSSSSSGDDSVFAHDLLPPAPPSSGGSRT
Experimental: as §1

SAPK2p(h) = biological target: T28, SAPK2p(h) (Homo sapiens, UniProt Q15759); details: read-out: percentage inhibition SAPK2p(h)
T28 construct: purchased Upstate
T28 sequence (Q15759 whole entry): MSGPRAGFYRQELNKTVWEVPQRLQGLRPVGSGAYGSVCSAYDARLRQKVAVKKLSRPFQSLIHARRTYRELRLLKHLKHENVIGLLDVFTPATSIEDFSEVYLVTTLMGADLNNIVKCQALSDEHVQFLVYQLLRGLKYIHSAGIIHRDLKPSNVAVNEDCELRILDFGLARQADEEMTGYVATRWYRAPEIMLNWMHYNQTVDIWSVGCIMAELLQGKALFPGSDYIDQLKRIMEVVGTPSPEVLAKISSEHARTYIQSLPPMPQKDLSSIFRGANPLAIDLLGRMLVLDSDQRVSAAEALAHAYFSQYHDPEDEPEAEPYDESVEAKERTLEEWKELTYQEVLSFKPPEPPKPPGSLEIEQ
Experimental: as §1

Work on `CCN1CCN(Cc2ccc(NC(=O)c3ccc(C)c(NC(=O)N(C)c4ncnc5[nH]ccc45)c3)cc2C(F)(F)F)CC1` [Example 4, N-[4-(4-Ethyl-piperazin-1-ylmethyl)-3-trifluoromethyl-phenyl]-4-methyl-3-[3-methyl-3-(7H-pyrrolo[2,3-d]pyrimidin-4-yl)-ureido]-benzamide] yielded an inhibition at 10 µM (MKK4(m)) of 87%, an inhibition at 10 µM (PAK2(h)) of 62% and an inhibition at 10 µM (Rsk1(h)) of 95%. For the same molecule, the inhibition at 10 µM (JNK1α1(h)) was 81%, the inhibition at 10 µM (BTK(h)) was 99% and the inhibition at 10 µM (CSK(h)) was 100%. For the same molecule, the inhibition at 10 µM (Tie2(h)) was 98%, the inhibition at 10 µM (Abl(m)) was 98% and the inhibition at 10 µM (SGK(h)) was 81%. The inhibition at 10 µM (PKA(h)) was 92%, the inhibition at 10 µM (SAPK3(h)) was 92% and the inhibition at 10 µM (Bmx(h)) was 100%. The inhibition at 10 µM (Fes(h)) was 97%, the inhibition at 10 µM (JNK2α2(h)) was 99% and the inhibition at 10 µM (TrkB(h)) was 99%. It also gave an inhibition at 10 µM (Syk(h)) of 63%, an inhibition at 10 µM (MKK6(h)) of 98% and an inhibition at 10 µM (PDGFRα(h)) of 93%. For the same molecule, the inhibition at 10 µM (p70S6K(h)) was 94%, the inhibition at 10 µM (Met(h)) was 70% and the inhibition at 10 µM (ROCK-II(h)) was 78%. For the same molecule, the inhibition at 10 µM (Ros(h)) was 62%, the inhibition at 10 µM (Lck(h)) was 100% and the inhibition at 10 µM (IKKβ(h)) was 96%. The inhibition at 10 µM (SAPK2a(h)) was 92%, the inhibition at 10 µM (cSRC(h)) was 99% and the inhibition at 10 µM (FGFR3(h)) was 98%. The inhibition at 10 µM (SAPK2p(h)) was 85%.
